Experimental data as given in US20130190407A1, “CALCIUM RECEPTOR-ACTIVE MOLECULES” (NPS Pharmaceuticals, Inc., priority 1991, published 2013).

What was measured:
Format in all cases: cell-based
[1] = target: T1, parathyroid cell calcium receptor (Bos taurus, UniProt P35384); test: Mobilization of intracellular Ca2+ ([Ca2+]i, fura-2) in bovine parathyroid cells; parameters: Parathyroid glands were obtained from freshly slaughtered calves (12-15 weeks old); endogenous in cells; host or cells: dissociated primary bovine (calf) parathyroid cells; settings: Table 6; bovine parathyroid cells; read-out: EC50 PARATHYROID
T1 sequence (P35384 20-1085): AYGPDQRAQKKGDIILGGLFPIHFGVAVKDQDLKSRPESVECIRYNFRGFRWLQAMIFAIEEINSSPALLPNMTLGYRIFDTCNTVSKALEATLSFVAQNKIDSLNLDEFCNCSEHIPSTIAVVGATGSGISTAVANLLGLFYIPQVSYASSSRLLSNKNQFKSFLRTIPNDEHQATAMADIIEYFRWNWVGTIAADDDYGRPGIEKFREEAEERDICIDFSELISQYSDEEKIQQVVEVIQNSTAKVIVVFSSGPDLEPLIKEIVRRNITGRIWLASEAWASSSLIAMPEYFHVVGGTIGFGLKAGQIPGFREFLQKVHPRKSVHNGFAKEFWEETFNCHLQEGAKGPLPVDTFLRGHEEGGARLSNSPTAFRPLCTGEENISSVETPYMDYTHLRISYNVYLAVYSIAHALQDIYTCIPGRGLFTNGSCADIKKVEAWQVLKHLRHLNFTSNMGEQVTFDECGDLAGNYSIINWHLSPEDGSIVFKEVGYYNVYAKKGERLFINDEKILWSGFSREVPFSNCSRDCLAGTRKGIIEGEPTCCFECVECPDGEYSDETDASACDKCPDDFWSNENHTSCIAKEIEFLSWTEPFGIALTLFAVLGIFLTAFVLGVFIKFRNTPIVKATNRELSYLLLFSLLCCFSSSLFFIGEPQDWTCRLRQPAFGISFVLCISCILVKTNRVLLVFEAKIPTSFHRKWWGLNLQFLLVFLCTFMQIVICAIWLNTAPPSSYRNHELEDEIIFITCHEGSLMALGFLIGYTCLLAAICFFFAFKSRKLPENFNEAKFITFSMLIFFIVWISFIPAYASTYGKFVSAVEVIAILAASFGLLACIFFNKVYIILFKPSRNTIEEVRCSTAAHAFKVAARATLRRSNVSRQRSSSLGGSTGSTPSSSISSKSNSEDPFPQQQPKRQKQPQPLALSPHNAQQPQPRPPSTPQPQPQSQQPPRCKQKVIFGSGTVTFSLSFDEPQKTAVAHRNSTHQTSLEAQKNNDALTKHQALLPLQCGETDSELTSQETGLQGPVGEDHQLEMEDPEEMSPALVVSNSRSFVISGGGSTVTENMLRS
Experimental: This section describes procedures used to obtain and treat parathyroid cells from calves and humans. […] Human parathyroid glands, were obtained from patients undergoing surgical removal of parathyroid tissue for primary or uremic hyperparathyroidism (uremic HPT), and were treated similarly to bovine tissue.
Glands were trimmed of excess fat and connective tissue and then minced with fine scissors into cubes approximately 2-3 mm on a side. Dissociated parathyroid cells were prepared by collagenase digestion and then purified by centrifugation in Percoll buffer. The resultant parathyroid cell preparation was essentially devoid of red blood cells, adipocytes, and capillary tissue as assessed by phase contrast microscopy and Sudan black B staining. Dissociated and purified parathyroid cells were present as small clusters containing 5 to 20 cells.
The cells were then pelleted, resuspended in the same buffer, but lacking the ester, and incubated a further 15 minutes at 37° C. The cells were subsequently washed twice with PCB containing 0.5 mM CaCl2 and 0.5% BSA and maintained at room temperature (about 20° C.) Immediately before use, the cells were diluted five-fold with prewarmed 0.5 mM CaCl2-PCB to obtain a final BSA concentration of 0.1%. The concentration of cells in the cuvette used for fluorescence recording was 1−2×10^6/ml.
The fluorescence of indicator-loaded cells was measured at 37° C. in a spectrofluorimeter (Biomedical Instrumentation Group, University of Pennsylvania, Philadelphia, Pa.) equipped with a thermostated cuvette holder and magnetic stirrer using excitation and emission wavelengths of 340 and 510 nm, respectively. […] Leakage of dye is dependent on temperature and most occurs within the first 2 minutes after warming the cells in the cuvette. Dye leakage increases only very slowly thereafter. To correct the calibration for dye leakage, cells were placed in the cuvette and stirred at 37° C. for 2-3 minutes. The cell suspension was then removed, the cells pelleted, and the supernatant returned to a clean cuvette. […] This estimate was subtracted from the apparent Fmin.

[2] = target: T1, parathyroid cell calcium receptor; test: Cl- current in Xenopus oocytes injected with bovine parathyroid cell poly(A)+-mRNA; parameters: Whole pieces of gland were used to prepare mRNA that directs the expression of the calcium receptor in Xenopus oocytes; expressed in transfected cells; host or cells: Xenopus laevis oocytes injected with total poly(A)+ mRNA from bovine parathyroid glands; settings: 100 μM
Experimental: (§1) Following incubation, an oocyte was placed into a 100-μl plastic chamber and superfused with MBS at a flow rate of 0.5 ml/min using a peristaltic pump. Test molecules or inorganic polycations were added by rapidly moving the tubing into different buffers. Recording and current-passing electrodes were constructed from thin-wall capillary tubing pulled to a resistance of 1-3 Mohms and filled with 3 M KCl. […] Currents were recorded directly onto a strip chart recorder.
Dissociated bovine parathyroid cells were used to further explore the mechanism of action of NPS R-467 at the receptor level. […] It does, however, elicit responses in parathyroid cells and in oocytes when a small amount of extracellular Ca^2+ is present.

[3] = target: T2, osteoclast calcium receptor (Rattus norvegicus, UniProt P48442); test: [Ca2+]i (indo-1) in single rat osteoclasts
T2 sequence (P48442 20-1079): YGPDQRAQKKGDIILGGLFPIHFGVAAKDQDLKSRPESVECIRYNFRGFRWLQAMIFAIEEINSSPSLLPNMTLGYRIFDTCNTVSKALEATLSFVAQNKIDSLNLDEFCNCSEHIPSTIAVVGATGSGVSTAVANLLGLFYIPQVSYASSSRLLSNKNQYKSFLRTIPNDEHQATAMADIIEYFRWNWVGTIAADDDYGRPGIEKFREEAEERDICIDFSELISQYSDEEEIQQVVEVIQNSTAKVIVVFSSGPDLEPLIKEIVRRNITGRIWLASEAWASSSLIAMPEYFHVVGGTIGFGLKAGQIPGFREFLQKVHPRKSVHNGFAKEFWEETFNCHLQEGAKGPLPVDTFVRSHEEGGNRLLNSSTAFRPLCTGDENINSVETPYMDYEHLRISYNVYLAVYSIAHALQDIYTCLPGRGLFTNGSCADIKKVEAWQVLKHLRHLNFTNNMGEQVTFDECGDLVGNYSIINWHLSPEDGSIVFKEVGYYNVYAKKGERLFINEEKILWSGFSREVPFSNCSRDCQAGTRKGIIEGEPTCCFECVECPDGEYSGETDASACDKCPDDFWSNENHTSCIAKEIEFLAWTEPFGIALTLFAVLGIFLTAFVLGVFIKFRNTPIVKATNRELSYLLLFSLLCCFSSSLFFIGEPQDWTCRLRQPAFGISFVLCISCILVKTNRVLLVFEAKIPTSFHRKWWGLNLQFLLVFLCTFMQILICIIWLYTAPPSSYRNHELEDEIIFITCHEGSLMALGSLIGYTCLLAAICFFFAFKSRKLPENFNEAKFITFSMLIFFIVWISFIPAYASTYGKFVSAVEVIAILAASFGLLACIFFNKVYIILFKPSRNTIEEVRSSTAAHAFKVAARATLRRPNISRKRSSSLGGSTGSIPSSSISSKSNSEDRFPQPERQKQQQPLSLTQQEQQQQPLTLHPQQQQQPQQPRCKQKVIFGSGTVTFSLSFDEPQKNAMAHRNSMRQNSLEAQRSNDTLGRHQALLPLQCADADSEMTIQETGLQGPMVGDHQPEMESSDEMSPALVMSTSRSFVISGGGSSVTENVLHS

[4] = target: T3, bovine parathyroid cell calcium receptor (Bos taurus, UniProt P35384); test: Cl- current in Xenopus oocytes injected with BoPCaR 1
T3 construct: isolation of a single clone (BoPCaR 1) with a cDNA insert of 5.3 kb; expressed in transfected cells
T3 sequence (P35384 20-1085): T1 sequence (P35384 20-1085)
Experimental: Several pharmacological and biochemical criteria were used to identify this clone as encoding a bona fide bovine parathyroid Ca^2+ receptor. […] These responses increased markedly over a period of one to four days after injection of the eggs with cRNA prepared from the BoPCaR 1 cDNA. Furthermore, the ranges of the concentrations of the two cations eliciting this response were very similar to those shown previously to act on bovine parathyroid cells in vitro.
Xenopus oocytes were injected with BoPCaR 1, the 5.3 Kb cDNA encoding a bovine parathyroid cell calcium receptor as described in Example 25. After two to three days, Cl^− currents were examined in the oocytes using a two-electrode voltage clamp.
Xenopus oocytes were injected with BoPCaR 1 as described in Example 25. After two to three days, Cl^− currents were examined in the oocytes using two electrode voltage clamp.

calcium receptor = target: T4, calcium receptor (Homo sapiens, UniProt P41180); test: Cl- current in Xenopus oocytes injected with human parathyroid cell mRNA; settings: hexacyclen 135 μM, neomycin 100 μM, NPS 382 5 mM
T4 construct: poly(A)^+-enriched mRNA from human parathyroid tissue (hyperplastic glands from a case of secondary HPT); expressed in transfected cells; host or cells: Xenopus laevis oocytes injected with poly(A)+ mRNA from hyperplastic human parathyroid glands
T4 sequence (P41180 20-1078): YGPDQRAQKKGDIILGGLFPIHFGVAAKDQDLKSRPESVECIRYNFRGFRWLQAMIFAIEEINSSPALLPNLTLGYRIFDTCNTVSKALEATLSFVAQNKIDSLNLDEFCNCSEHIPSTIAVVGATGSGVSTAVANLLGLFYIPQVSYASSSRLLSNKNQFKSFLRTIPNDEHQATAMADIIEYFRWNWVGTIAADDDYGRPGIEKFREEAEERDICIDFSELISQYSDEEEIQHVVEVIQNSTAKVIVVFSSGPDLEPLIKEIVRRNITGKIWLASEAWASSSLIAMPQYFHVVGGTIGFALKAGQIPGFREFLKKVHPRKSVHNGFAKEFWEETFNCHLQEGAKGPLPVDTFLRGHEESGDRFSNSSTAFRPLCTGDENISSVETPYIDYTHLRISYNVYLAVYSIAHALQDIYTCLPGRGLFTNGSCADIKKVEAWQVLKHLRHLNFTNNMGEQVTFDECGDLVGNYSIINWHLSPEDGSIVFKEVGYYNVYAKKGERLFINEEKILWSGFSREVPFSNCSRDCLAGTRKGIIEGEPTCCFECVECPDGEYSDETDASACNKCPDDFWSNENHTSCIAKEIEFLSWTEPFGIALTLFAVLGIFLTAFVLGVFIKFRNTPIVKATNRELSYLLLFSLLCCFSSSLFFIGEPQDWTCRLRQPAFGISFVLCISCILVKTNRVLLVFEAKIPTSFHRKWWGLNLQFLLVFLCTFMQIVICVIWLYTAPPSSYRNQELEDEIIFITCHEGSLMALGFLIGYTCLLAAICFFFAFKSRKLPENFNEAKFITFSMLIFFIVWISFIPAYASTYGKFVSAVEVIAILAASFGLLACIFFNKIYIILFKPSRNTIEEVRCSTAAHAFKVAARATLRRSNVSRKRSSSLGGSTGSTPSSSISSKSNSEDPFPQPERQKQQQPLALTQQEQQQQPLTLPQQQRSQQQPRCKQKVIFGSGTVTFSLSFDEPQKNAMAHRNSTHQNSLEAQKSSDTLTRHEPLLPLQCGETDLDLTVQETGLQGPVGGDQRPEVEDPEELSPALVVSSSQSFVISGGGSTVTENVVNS
Experimental: Oocytes were injected with poly(A)^+-enriched mRNA from human parathyroid tissue (hyperplastic glands from a case of secondary HPT).
as §1
Using this screen allows one to test for an action directly on the calcium receptor. Oocytes expressing the calcium receptor also responded to several molecules active on intact parathyroid cells when screened as follows. […] This offers rather compelling evidence showing that these molecules act on the calcium receptor or on some other protein intimately associated with its function.

Bovine parathyroid cells = settings: 10 μM isoproterenol 15 min; no pertussis toxin; 2.0 mM Ca2+, 200 μM spermine, 30 μM neomycin B, 2 μg/ml protamine; mean ± SEM
Experimental: This section describes measuring cyclic AMP levels. Cells were incubated as above for PTH secretion studies and at the end of the incubation, a 0.15-ml sample was taken and transferred to 0.85 ml of hot (70° C.) water and heated at this temperature for 5-10 minutes. The tubes were subsequently frozen and thawed several times and the cellular debris sedimented by centrifugation. Portions of the supernatant were acetylated and cyclic AMP concentrations determined by radioimmunoassay.
Bovine parathyroid cells were cultured for 16 hours with or without 100 ng/ml pertussis toxin. […] Each value is the mean±SEM of three experiments.

## CC(NCCC(c1ccccc1)c1ccccc1)c1ccccc1 (racemic) [Fendiline, fendiline]
[1]
  EC50: 15 µM
[2]
  Cl- current: elicits oscillatory increases in Cl^− current

## NCCCNCCCCNCCCNCCCN(O)CCCNC(=O)Cc1c[nH]c2ccccc12 [NPS 017, Agatoxin 489]
[3]; Table 6, rat osteoclasts, indo-1
  EC50 OSTEOCLAST: inactive
[4]; 1 mM extracellular Ca2+
  Cl- current: oscillatory increases in the Cl^− current

## NCCCN(CCCN)CCCNCCCCNCCCN(CCCN)CCCN [NPS 382, N^1, N^1, N^5, N^14, N^14-tetrakis-(3-aminopropyl)spermine]
Calcium receptor
  mobilization of intracellular Ca2+ in oocytes: effective

## COc1cccc([C@H](C)NCCCc2ccccc2Cl)c1 [NPS S-568]
[4]
  concentration eliciting Cl- current responses: 100 µM

## NCCCCNCCCN [Spermidine, spermidine]
[3]
  compounds that caused any large increase in [Ca2+]i: none

## NCCCNCCCCNCCCN [Spermine, spermine]
Bovine parathyroid cells
  cyclic AMP (% of control), control: 23 ± 5 % of control
